# Test results published in patent US20120202231A1, “SYNERGISTIC BIOMARKER ASSAY OF NEUROLOGICAL CONDITION USING S-100B” (priority 2009, published 2012).
# System: Female Sprague-Dawley rats
# Conditions: for S-100b level relative to control animals / GFAP level relative to control animals / UCH-L1 level relative to control animals: rats, biofluids, 30, 60, 90, 120 min after dosing
# Protocol: Acute oral In vivo drug candidate screening for neurotoxicity. […] A total of four to eight animals of are used for each dose level investigated.
# At 30, 60, 90, and 120 minutes following dosing, the rats are sacrificed by decapitation and blood is obtained by cardiac puncture. The levels of biofluids S-100β, UCH-L1, and GFAP are analyzed by sandwich ELISA or western blot by using biomarker specific antibodies.
SMILES,"CSF concentration of GFAP relative to control animals (rat, in vivo)","CSF concentration of UCH-L1 relative to control animals (rat, in vivo)",S-100b level relative to control animals,GFAP level relative to control animals,UCH-L1 level relative to control animals
CN[C@@H](C)Cc1ccccc1 [methamphetamine],increase,increase,Modest increase,,
"N.N.[Cl][Pt][Cl] [Cisplatin, cisplatin]",,,increase,increase,increase
C=C(C)[C@H]1CN[C@H](C(=O)O)[C@H]1CC(=O)O [kainic acid],,,increase,increase,increase
CN1CC=C(c2ccccc2)CC1 [MPTP],,,increase,increase,increase
